Measured values from US9980943B2, “Methods of treating muscular dystrophy” (BOARD OF REGENTS OF THE NEVADA SYSTEM OF HIGHER EDUCATION, …, priority 2013, dated 2018).

Tests used:
Format in all cases: cell-based, mouse
[1] = tested on: α7 integrin (LacZ reporter in α7βgal+/− myoblasts); test: Myoblast α7+/LacZ integrin FDG assay (Burkin assay in myoblasts, 96-well); conditions: 96-well; for Burkin Assay in Myoblasts, value relative to DMSO: SU9516 analogs, N=3-6; for Burkin Assay in Myoblasts, signal relative to DMSO: α7+/LacZ myoblasts
[2] = tested on: α7 integrin (LacZ reporter in α7+/LacZ myotubes); test: Myotube α7 integrin FDG assay (Burkin assay in myotubes, 96-well); conditions: for Burkin Assay in Myotubes, value relative to DMSO: SU9516 analogs, 96-well, N=3-6
[3] = tested on: β-galactosidase in CMV-LacZ C2C12 myoblasts; test: CMV-LacZ secondary screen in C2C12 myoblasts (β-Gal stabilizing assay); conditions: for CMV-LACZ in Myoblasts, value relative to DMSO: SU9516 analogs, C2C12 CMV-LacZ, N=2; for CMV-LACZ in Myoblasts (β-galactosidase activity relative to DMSO): CMV-LacZ C2C12 myoblasts
Method in brief: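 C2C12 myoblasts stably carrying a linearized CMV-driven LacZ construct, clone chosen by β-gal level in the myoblast FDG assay. Compounds tested in 96-well dose-response at 0.5, 1, 5, 10, 20 and 40 μM, N=2 replicates per point, to detect β-gal stabilization.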

[4] = tested on: β-galactosidase in CMV-LacZ C2C12 myotubes; test: CMV-LacZ secondary screen in C2C12 myotubes (β-Gal stabilizing assay); conditions: for CMV-LACZ in Myotubes, value relative to DMSO: SU9516 analogs, C2C12 CMV-LacZ, N=2; for CMV-LACZ in Myotubes, signal relative to DMSO: C2C12 CMV-LacZ myotubes, fold relative to DMSO
Method in brief: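 β-Gal level was the read-out, measured in a clonal C2C12 line expressing LacZ from a CMV promoter. Dose-response curves used six concentrations, 0.5 μM up to 40 μM, with duplicate points.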

For `C=CCOc1ccc(C(=O)/C=C2/C(=O)Nc3ccccc32)cc1` [MLS001214264-01], the “Burkin Assay in Myoblasts, value relative to DMSO” value ([1]; 0.5 uM) was 0.8908, the “Burkin Assay in Myoblasts, value relative to DMSO” value ([1]; 1 uM) was 0.8464 and the “Burkin Assay in Myoblasts, value relative to DMSO” value ([1]; 5 uM) was 0.743. The “Burkin Assay in Myoblasts, value relative to DMSO” value ([1]; 10 uM) was 0.7009, the “Burkin Assay in Myoblasts, value relative to DMSO” value ([1]; 20 uM) was 0.7879 and the “Burkin Assay in Myoblasts, value relative to DMSO” value ([1]; 40 uM) was 0.2394. The “Burkin Assay in Myotubes, value relative to DMSO” value ([2]; 0.5 uM) was 0.9576, the “Burkin Assay in Myotubes, value relative to DMSO” value ([2]; 1 uM) was 0.8975 and the “Burkin Assay in Myotubes, value relative to DMSO” value ([2]; 5 uM) was 0.9073. The “Burkin Assay in Myotubes, value relative to DMSO” value ([2]; 10 uM) was 1.058, the “Burkin Assay in Myotubes, value relative to DMSO” value ([2]; 20 uM) was 0.7165 and the “Burkin Assay in Myotubes, value relative to DMSO” value ([2]; 40 uM) was 0.7173. The “CMV-LACZ in Myoblasts, value relative to DMSO” value ([3]; 0.5 uM) was 1.0657, the “CMV-LACZ in Myoblasts, value relative to DMSO” value ([3]; 1 uM) was 1.1383 and the “CMV-LACZ in Myoblasts, value relative to DMSO” value ([3]; 5 uM) was 1.3058. For the same compound, the “CMV-LACZ in Myoblasts, value relative to DMSO” value ([3]; 10 uM) was 0.9233, the “CMV-LACZ in Myoblasts, value relative to DMSO” value ([3]; 20 uM) was 0.3870 and the “CMV-LACZ in Myoblasts, value relative to DMSO” value ([3]; 40 uM) was 0.4856. The “CMV-LACZ in Myotubes, value relative to DMSO” value ([4]; 0.5 uM) was 1.1210, the “CMV-LACZ in Myotubes, value relative to DMSO” value ([4]; 1 uM) was 1.1905 and the “CMV-LACZ in Myotubes, value relative to DMSO” value ([4]; 5 uM) was 0.9411. For the same compound, the “CMV-LACZ in Myotubes, value relative to DMSO” value ([4]; 10 uM) was 1.1534, the “CMV-LACZ in Myotubes, value relative to DMSO” value ([4]; 20 uM) was 1.2424 and the “CMV-LACZ in Myotubes, value relative to DMSO” value ([4]; 40 uM) was 1.4482.

`CCCc1nnc(SCC(=O)NC2CCCC2)n1CCOC` [MLS001217935-01] was tested, and the “Burkin Assay in Myoblasts, signal relative to DMSO” value ([1]; 0.5 uM) was 1.162, the “Burkin Assay in Myoblasts, signal relative to DMSO” value ([1]; 1 uM) was 1.076 and the “Burkin Assay in Myoblasts, signal relative to DMSO” value ([1]; 5 uM) was 0.9106. The “Burkin Assay in Myoblasts, signal relative to DMSO” value ([1]; 10 uM) was 0.893, the “Burkin Assay in Myoblasts, signal relative to DMSO” value ([1]; 20 uM) was 0.8002 and the “Burkin Assay in Myoblasts, signal relative to DMSO” value ([1]; 40 uM) was 0.587. For the same compound, the “Burkin Assay in Myotubes, α7 integrin LacZ reporter signal relative to DMSO” value ([2]; 0.5 uM) was 0.9075, the “Burkin Assay in Myotubes, α7 integrin LacZ reporter signal relative to DMSO” value ([2]; 1 uM) was 1.018 and the “Burkin Assay in Myotubes, α7 integrin LacZ reporter signal relative to DMSO” value ([2]; 5 uM) was 0.8812. For the same compound, the “Burkin Assay in Myotubes, α7 integrin LacZ reporter signal relative to DMSO” value ([2]; 10 uM) was 1.081, the “Burkin Assay in Myotubes, α7 integrin LacZ reporter signal relative to DMSO” value ([2]; 20 uM) was 0.7887 and the “Burkin Assay in Myotubes, α7 integrin LacZ reporter signal relative to DMSO” value ([2]; 40 uM) was 0.5246. For the same compound, the “CMV-LACZ in Myoblasts (β-galactosidase activity relative to DMSO)” value ([3]; 0.5 uM) was 1.1729, the “CMV-LACZ in Myoblasts (β-galactosidase activity relative to DMSO)” value ([3]; 1 uM) was 1.1167 and the “CMV-LACZ in Myoblasts (β-galactosidase activity relative to DMSO)” value ([3]; 5 uM) was 1.0175. The “CMV-LACZ in Myoblasts (β-galactosidase activity relative to DMSO)” value ([3]; 10 uM) was 1.0465, the “CMV-LACZ in Myoblasts (β-galactosidase activity relative to DMSO)” value ([3]; 20 uM) was 0.7859 and the “CMV-LACZ in Myoblasts (β-galactosidase activity relative to DMSO)” value ([3]; 40 uM) was 0.5381. The “CMV-LACZ in Myotubes, signal relative to DMSO” value ([4]; 0.5 uM) was 0.9705, the “CMV-LACZ in Myotubes, signal relative to DMSO” value ([4]; 1 uM) was 1.1381 and the “CMV-LACZ in Myotubes, signal relative to DMSO” value ([4]; 5 uM) was 1.1473. For the same compound, the “CMV-LACZ in Myotubes, signal relative to DMSO” value ([4]; 10 uM) was 0.9648, the “CMV-LACZ in Myotubes, signal relative to DMSO” value ([4]; 20 uM) was 1.0547 and the “CMV-LACZ in Myotubes, signal relative to DMSO” value ([4]; 40 uM) was 0.9495.
